pIC50: −log10 of the molar value. Active and inactive are the calls of the source. The rule behind the calls is not given here.
Each compound was assayed on VEGF-stimulated ADSC/ECFC co-culture, nuclear area imaging (assay: nuclear area loss in endothelial-stromal co-culture, dose response, cell-based, VEGF stimulation, IC50 (AID 1117324)).

Row | Compound | IC50 | pIC50
1 | CCOC(=O)[C@H](CCc1ccccc1)N[C@@H](C)C(=O)N1C(=O)N(C)C[C@H]1C(=O)O | > 10 µM (inactive) | 
2 | CCCCCCCCCCCCCC[N+](C)(C)Cc1ccccc1 | 8.36 µM (inactive) | 
3 | CN1CCN(c2cc3c(nn2)Oc2ccccc2N3C)CC1 | > 10 µM (inactive) | 
4 | O=C1NCN(c2ccccc2)C12CCN(CCCC(c1ccc(F)cc1)c1ccc(F)cc1)CC2 | 8.09 µM (inactive) | 
5 | CC(C)CCCC(C)NCCC(C)C (centres undefined) | > 10 µM (inactive) | 
6 | Oc1c(Cl)cc(Cl)c2cccnc12 | > 10 µM (inactive) | 
7 | O=C(NC1CCN(CCc2c[nH]c3ccccc23)CC1)c1ccccc1 | > 10 µM (inactive) | 
8 | COc1ccc2c(c1)c1c3n2CCN(C)C3=NCC1 | > 10 µM (inactive) | 
9 | Cn1cc(S(C)=O)c(=O)c2ccc(F)cc21 (centres undefined) | > 10 µM (inactive) | 
10 | CC[C@@]1(O)C(=O)OCc2c1cc1n(c2=O)Cc2c-1nc1ccccc1c2/C=N/OC(C)(C)C |  | 6.10
11 | Cc1cccc(Nc2cc(Cl)nc(SCC(=O)O)n2)c1C | > 10 µM (inactive) | 
12 | Cc1cc(=O)c2c(O)c3c(O)cc(=O)c4c3c3c(cc(O)c1c23)C(C)(C)C=4O |  | 5.68
13 | COP(=S)(OC)Oc1ccc(Sc2ccc(OP(=S)(OC)OC)cc2)cc1 | > 10 µM (inactive) | 
14 | C/C=C(/C(=C/C)c1ccc(OC(C)=O)cc1)c1ccc(OC(C)=O)cc1 | > 10 µM (inactive) | 
15 | COc1cc(-c2ccc(=O)[nH]n2)ccc1OC(F)F | > 10 µM (inactive) | 
16 | CCCCCCCCCCCCCCCC[N+](C)(C)Cc1ccccc1 | > 10 µM (inactive) | 
17 | Cc1cc(-c2ccc(N=Nc3c(S(=O)(=O)O)cc4cc(S(=O)(=O)O)cc(N)c4c3O)c(C)c2)ccc1N=Nc1c(S(=O)(=O)O)cc2cc(S(=O)(=O)O)cc(N)c2c1O | > 10 µM (inactive) | 
18 | COc1cc(NCc2ccc3nc(N)nc(N)c3c2C)cc(OC)c1OC | > 10 µM (inactive) | 
19 | COc1cc(C=C2CCC/C(=C\c3ccc(O)c(OC)c3)C2=O)ccc1O | 6.98 µM (inactive) | 
20 | CC(=O)N(O)CCCCCNC(=O)CCC(=O)N(O)CCCCCNC(=O)CCC(=O)N(O)CCCCCN | > 10 µM (inactive) | 
21 | CC(=O)Nc1ccn(C2COC(COC(=O)c3ccccc3)O2)c(=O)n1 (centres undefined) | > 10 µM (inactive) | 
22 | CC(=O)N(CC(O)CN(C(C)=O)c1c(I)c(C(=O)NCC(O)CO)c(I)c(C(=O)NCC(O)CO)c1I)c1c(I)c(C(=O)NCC(O)CO)c(I)c(C(=O)NCC(O)CO)c1I (centres undefined) | > 10 µM (inactive) | 
23 | N/C(=N\N=C\c1ccc(Cl)cc1)N/N=C/c1ccc(Cl)cc1 | > 10 µM (inactive) | 
24 | O=c1[nH]c(=O)n([C@H]2C[C@H](O)[C@@H](CO)O2)cc1Br | > 10 µM (inactive) | 

Row | Compound | IC50 | pIC50
25 | CCCCCCOC(=O)c1cccnc1 | > 10 µM (inactive) | 
26 | CN(C)/N=N/c1nc[nH]c1C(N)=O | > 10 µM (inactive) | 
27 | COCCOC(=O)C1=C(C)NC(C)=C(C(=O)OC/C=C/c2ccccc2)C1c1cccc([N+](=O)[O-])c1 (centres undefined) | > 10 µM (inactive) | 
28 | Cc1onc(-c2c(Cl)cccc2Cl)c1C(=O)Cl | > 10 µM (inactive) | 
29 | C[C@@H]1C[C@@H]([C@H](O)CC2CC(=O)NC(=O)C2)C(=O)[C@@H](C)C1 | > 10 µM (inactive) | 
30 | CCCCCCCCCCOCC(O)CN (centres undefined) | > 10 µM (inactive) | 
31 | C[C@H](O)CN(C)C | > 10 µM (inactive) | 
32 | CN(C)c1ccc2nc3ccc(=[N+](C)C)cc-3sc2c1 | > 10 µM (inactive) | 
33 | O=C(N/N=C/c1ccccc1O)c1ccncc1 | > 10 µM (inactive) | 
34 | CN1CCCC(CC2c3ccccc3Sc3ccccc32)C1 (centres undefined) | > 10 µM (inactive) | 
35 | CN(Cc1cnc2nc(N)nc(N)c2n1)c1ccc(C(=O)N[C@@H](CCC(=O)O)C(=O)O)cc1 | > 10 µM (inactive) | 
36 | CCN1CCC[C@H]1CNC(=O)c1c(OC)ccc(Br)c1OC | > 10 µM (inactive) | 
37 | O=c1[nH]c(=O)n([C@H]2C[C@H](O)[C@@H](CO)O2)cc1F | > 10 µM (inactive) | 
38 | CCC1Nc2cc(Cl)c(S(N)(=O)=O)cc2S(=O)(=O)N1 (centres undefined) | > 10 µM (inactive) | 
39 | CCCCCCCCCCCCCCCCNc1ccc(C(=O)O)cc1 | > 10 µM (inactive) | 
40 | Clc1ccc(Nc2nnc(Cc3ccncc3)c3ccccc23)cc1 | > 10 µM (inactive) | 
41 | O=C(Nc1ccc(S(=O)(=O)N2CCOCC2)cc1)c1cc(Cl)ccc1NS(=O)(=O)c1ccc(Cl)s1 | > 10 µM (inactive) | 
42 | CCCCC1C(=O)N(c2ccccc2)N(c2ccc(O)cc2)C1=O (centres undefined) | 8.83 µM (inactive) | 
43 | O=C1c2c(O)ccc(O)c2C(=O)c2c(NCCNCCO)ccc(NCCNCCO)c21 |  | 7.89
44 | C/C(=N\O)[C@@H](C)NCC(C)(C)CN[C@H](C)/C(C)=N/O | > 10 µM (inactive) | 
45 | O=C(O)CCC(=O)OC[C@@H](NC(=O)C(Cl)Cl)[C@H](O)c1ccc([N+](=O)[O-])cc1 | > 10 µM (inactive) | 
46 | COc1cccc2c1C(=O)c1c(O)c3c(c(O)c1C2=O)C[C@@](O)(C(=O)CO)C[C@@H]3O[C@H]1C[C@H](N)[C@H](O)[C@H](C)O1 |  | 6.94
47 | CSc1ccc2c(c1)C(N1CCN(C)CC1)Cc1ccccc1S2 (centres undefined) | > 10 µM (inactive) | 
48 | CCCCC(=O)O[C@H]1CC[C@H]2[C@@H]3CCc4cc(O)ccc4[C@@H]3CC[C@]12C | 8.3 µM (inactive) | 

Row | Compound | IC50 | pIC50
49 | C[C@]12CC[C@@H]3c4ccc(O)cc4CC[C@H]3[C@@H]1CC[C@@H]2OC(=O)CCC1CCCC1 | > 10 µM (inactive) | 
50 | CS(=O)(=O)CCNCc1ccc(-c2ccc3ncnc(Nc4ccc(OCc5cccc(F)c5)c(Cl)c4)c3c2)o1 | > 10 µM (inactive) | 
51 | CCOC(=O)C1=C(C)NC(C)=C(C(=O)OCC)C1c1ccccc1/C=C/C(=O)OC(C)(C)C | > 10 µM (inactive) | 
52 | O[C@@H](CNC[C@H](O)[C@H]1CCc2cc(F)ccc2O1)[C@@H]1CCc2cc(F)ccc2O1 | > 10 µM (inactive) | 
53 | CCN(CC)CCOc1ccc(C(O)(Cc2ccc(Cl)cc2)c2ccc(C)cc2)cc1 (centres undefined) | 6.98 µM (inactive) | 
54 | COc1cc([C@@H]2c3cc4c(cc3[C@@H](O[C@@H]3O[C@@H]5CO[C@@H](C)O[C@@H]5[C@H](O)[C@@H]3O)[C@H]3COC(=O)[C@H]23)OCO4)cc(OC)c1O |  | 6.01
55 | O=C(Nc1ccc(Br)cc1)c1cc(Br)c(Br)s1 | > 10 µM (inactive) | 
56 | CC(=O)c1ccc(OCC(=O)N2CCCCC2)cc1 | > 10 µM (inactive) | 
57 | OC[C@@H](O)[C@H](O)[C@H](O)[C@@H](O)CO | > 10 µM (inactive) | 
58 | CCc1oc2ccccc2c1C(=O)c1cc(I)c(O)c(I)c1 | > 10 µM (inactive) | 
59 | CCCCCCCCCCCCCCCCCC[N+](C)(C)CCC[Si](OC)(OC)OC | > 10 µM (inactive) | 
60 | Oc1cc(Cl)ccc1Oc1ccc(Cl)cc1Cl | 8.1 µM (inactive) | 
61 | Cc1nc2ccccc2n1Cc1ccc(Cl)cc1 | > 10 µM (inactive) | 
62 | CCCn1cnc2c1c(=O)n(CCCCC(C)=O)c(=O)n2C | > 10 µM (inactive) | 
63 | Oc1ccc(/C=C/c2cc(O)cc(O)c2)cc1 | > 10 µM (inactive) | 
64 | NC1=NCC2c3ccccc3Cc3ccccc3N12 (centres undefined) | > 10 µM (inactive) | 
65 | COC(=O)Nc1nc2ccc(C(=O)c3ccccc3)cc2[nH]1 | > 10 µM (inactive) | 
66 | CC(=O)Oc1ccc(C2(c3ccc(OC(C)=O)cc3)C(=O)Nc3ccccc32)cc1 | > 10 µM (inactive) | 
67 | CC(C)(C)CC(C)(C)c1ccc(O)cc1 | 9.11 µM (inactive) | 
68 | Cc1cccc(C)c1NC(=O)CN1CCN(CCCC(c2ccc(F)cc2)c2ccc(F)cc2)CC1 | 9.37 µM (inactive) | 
69 | O=C1C(I)=CC(=C(c2cc(I)c(O)c(I)c2)c2ccccc2C(=O)O)C=C1I | > 10 µM (inactive) | 
70 | CN1CCN(CCCN2c3ccccc3Sc3ccc(S(=O)(=O)N(C)C)cc32)CC1 | > 10 µM (inactive) | 
71 | CC(C)=CCCC(C)=CCCC(C)=CCCC=C(C)CCC=C(C)CCC=C(C)C | > 10 µM (inactive) | 
72 | CCCCN1CCCC1C(=O)Nc1c(C)cc(C)cc1C (centres undefined) | > 10 µM (inactive) | 

Row | Compound | IC50 | pIC50
73 | NC(=O)n1c(O)c(C(=O)c2cccs2)c2cc(Cl)ccc21 | > 10 µM (inactive) | 
74 | CCCCC(CC)COC(=O)CC(C(=O)OCC(CC)CCCC)S(=O)(=O)O (centres undefined) | > 10 µM (inactive) | 
75 | CC(C)OC(=O)OCOP(=O)(CO[C@H](C)Cn1cnc2c(N)ncnc21)OCOC(=O)OC(C)C | > 10 µM (inactive) | 
76 | O=C1NC2CCCCN2C12CCN(CCCN1c3ccccc3CCc3ccc(Cl)cc31)CC2 (centres undefined) | > 10 µM (inactive) | 
77 | CC(C)(C)C(=O)OCOP(=O)(COCCn1cnc2c(N)ncnc21)OCOC(=O)C(C)(C)C | > 10 µM (inactive) | 
78 | C=CCN1CC[C@]23CCCC[C@H]2[C@H]1Cc1ccc(O)cc13 | > 10 µM (inactive) | 
79 | O=[N+]([O-])c1cc(I)c(O)c(I)c1 | > 10 µM (inactive) | 
80 | CN(C)c1ccc(C(=C2C=CC(=[N+](C)C)C=C2)c2ccc(N(C)C)cc2)cc1 |  | 5.74
81 | O=S(c1cc(Cl)cc(Cl)c1O)c1cc(Cl)cc(Cl)c1O | > 10 µM (inactive) | 
82 | CCN(CC)CCNc1ccc(CO)c2sc3ccccc3c(=O)c12 | > 10 µM (inactive) | 
83 | CCCSS/C(CCO)=C(\C)N(C=O)Cc1cnc(C)nc1N | > 10 µM (inactive) | 
84 | CC(=O)O[C@@]12CO[C@@H]1C[C@H](O)[C@@]1(C)C(=O)[C@H](O)C3=C(C)[C@@H](OC(=O)[C@H](O)[C@@H](NC(=O)OC(C)(C)C)c4ccccc4)C[C@@](O)([C@@H](OC(=O)c4ccccc4)[C@H]21)C3(C)C | > 10 µM (inactive) | 
85 | Oc1c(I)cc(I)c2cccnc12 | > 10 µM (inactive) | 
86 | COc1cc(S(N)(=O)=O)cc(C(=O)O)c1OC | > 10 µM (inactive) | 
87 | Cc1nc2ccc(CN(C)c3ccc(C(=O)N[C@@H](CCC(=O)O)C(=O)O)s3)cc2c(=O)[nH]1 | > 10 µM (inactive) | 
88 | COc1ccccc1N1CCN(CC(O)COc2cc(OC)c(OC)c(OC)c2)CC1 (centres undefined) | > 10 µM (inactive) | 
89 | CCCCCCNC(=O)n1cc(F)c(=O)[nH]c1=O | > 10 µM (inactive) | 
90 | C#C[C@]1(OC(C)=O)CC[C@H]2[C@@H]3CCC4=C/C(=N/O)CC[C@@H]4[C@H]3CC[C@@]21CC | > 10 µM (inactive) | 
91 | NC(=O)C1(N2CCCCC2)CCN(CCCN2c3ccccc3CCc3ccc(Cl)cc32)CC1 | > 10 µM (inactive) | 
92 | CSc1ccc2c(c1)N(CCC1CCCCN1C)c1ccccc1S2 (centres undefined) | 9.24 µM (inactive) | 
93 | Oc1c(Br)cc(Br)c2cccnc12 | > 10 µM (inactive) | 
94 | CC(C)Cn1cnc2c1c(=O)n(C)c(=O)n2C | > 10 µM (inactive) | 
